According to US7022315B2, “Administration of a thiol-based chemoprotectant compound” (Oregon Health & Science University, priority 2000, dated 2006):
Values after ≈ are worked out from the molar mass of the structure shown. Where two headings read alike, the source gives them in different places.

Columns and labels:
GM294 human fibroblasts = experiment: Cytoenhancement and chemoprotection in fibroblasts, WST assay; type: cell-based
Experimental: Cytotoxicity was assessed in GM294 human fibroblasts, 1×10^4 cells per well in 96 well plates, using the WST colorometric assay. […] Data are expressed as the percentage of live cells compared to control samples (without chemotherapy) and each point represents the mean±s.d. of 4 wells.

[1] = system: Caspase-2 activity in B.5 LX-1 cells; experiment: Caspase-2 enzymatic activity (apoptosis); type: cell-based; details: for increase in caspase activity: variable between experiments
Experimental: (§1) FIGS. 7A and 7B show the effect of cytoenhancement and chemoprotection on apoptosis. […] Apoptosis was assessed in cultured LX-1 SCLC cells pretreated for 18 hours with or without 100 μM BSO. The experimental conditions were no addition (open bars), melphalan (10 μg/ml, striped bars) or melphalan (10 μg/ml) plus N-acetylcysteine (1000 μg/ml) (cross hatched bars) for 20 h prior to harvest. Caspase-2 activity is expressed as percentage activity in untreated control samples (mean±standard deviation, n=3). TUNEL staining is expressed as the percentage of cells showing positive staining.
(§2) Apoptosis was evaluated by measuring Caspase-2 enzymatic activity and by in situ TUNEL staining. […] The increase in caspase activity was variable between experiments and ranged from 50–100% at 7–8 h to 250–600% at 20–24 h after treatment with melphalan. […] In the experiment shown in FIG. 7B, TUNEL staining after melphalan treatment was positive in 29 of 3643 cells, compared to 7 of 4395 cells in the untreated control, and BSO treatment prior to melphalan increased the positive staining to 800 of 1699 cells. […] In both assays, activity was maximal with low doses of melphalan, or with a 1 hour pulse treatment with the doses used in the cytotoxicity assays.
Samples of the cells used in the caspase and TUNEL assays were also evaluated for membrane permeability by trypan blue exclusion.

B.5 LX-1 cells [2] = experiment: cells; details: for EC50: Homo sapiens
Experimental: FIGS. 4A and 4B show cytoenhancement and chemoprotection. […] Cytotoxicity was assessed in cultured LX-1 SCLC cells, 1×10^4 cells per well in 96 well plates, using the WST colorometric assay. BSO cytoenhancement consisted of preincubation at 100 μM BSO for 18 hours. The chemoprotective agent was added immediately after chemotherapy. The experimental conditions were dose/responses for chemotherapy (carboplatin or etoposide phosphate) alone (m), BSO cytoenhancement ( ? ), N-acetylcysteine rescue, (1000 μg/ml N-acetylcysteine, n), or BSO cytoenhancement and N-acetylcysteine rescue (u). Data are expressed as the percentage of live cells compared to untreated control samples without chemotherapy and each point represents the mean±standard deviation of 4 wells.
The effects of BSO cytoenhancement and thiol chemoprotection on the dose/response relationships for cytotoxicity of the alkylating chemotherapeutics were evaluated in the B.5 LX-1 cells. BSO cytoenhancement consisted of preincubation with 100 μM BSO for about 18–24 hours prior to addition of chemotherapy, and rescue consisted of 1000–2000 μg/ml of thiol chemoprotectant added immediately after chemotherapy.
Cytoenhancement and chemoprotection against non-alkylating chemotherapeutic agents was also evaluated.
Half-maximal cytotoxic concentrations (EC50) are expressed as μg/ml. Each EC50 measurement comprised 6 concentrations with 4 wells per concentration, and each dose response was performed in triplicate for each chemotherapeutic agent. Data are reported as the mean±pooled standard deviation for three independent experiments. P values are shown for the reduction in EC50 by BSO treatment (*=P<0.05, **=P<0.01, ***=P<0.001).

LX-1 SCLC cells [3] = experiment: cells; details: for EC50 / Chemoprotective agent EC50: average ± pooled sd of two experiments
Experimental: Cytotoxicity was assessed in cultured LX-1 SCLC cells, 1×10^4 cells per well in 96 well plates, using the WST colorometric assay. […] Chemoprotectant was added at the indicated concentration of N-acetylcysteine shown in FIG. 3A or D-methionine shown in FIG. 3B either alone (n) or immediately following chemotherapy. Data are expressed as the percentage of live cells compared to untreated control samples (without chemotherapy) and each point represents the mean±standard deviation of 4 wells.
The dose/response for rescue from chemotherapy cytotoxicity was evaluated for four different small molecular weight sulfur containing chemoprotectants.
Chemotherapy agents were fixed at the 90% lethal dose for each agent. Each EC50 measurement comprised 6 concentrations with 4 wells per concentration, and each dose response was performed twice for each protectant. EC50 concentrations, in μg/ml are reported as the average±pooled standard deviation for two independent experiments.

LX-1 SCLC cells [4] = system: LX-1 SCLC cells
Experimental: Chemotherapy cytotoxicity was assessed in cultured LX-1 SCLC cells (1×10^4 cells/well in 96 well plates) using the WST colorometric assay. […] Cells then received either no protectant (open bars), or sodium thiosulfate, 2000 μg/ml, added immediately (striped bars), 2 hours (black bars) or 4 hours (cross hatched bars) after chemotherapy. Data are expressed as the percentage of live cells compared to control samples (without chemotherapy) and each point represents the mean±standard deviation of 4 wells.
The thiol chemoprotectants were added either concurrently with chemotherapy or up to 8 hours after chemotherapy.

B.5 LX-1 cells [5] = experiment: In situ TUNEL staining for DNA fragmentation; type: cell-based
Experimental: as §1, §2

rats = experiment: Protection against chemotherapy-induced myelosuppression, nadir blood counts; type: in vivo, rat; details: STS alone; data not shown
Experimental: FIGS. 10A–10D show the results of tests on chemoprotection for chemotherapy-induced myelosuppression. Rats received tri-drug chemotherapy (Carboplatin 200 mg/m2, etoposide phosphate 100 mg/m2, melphalan 10 mg/m2), with (triangles, squares) or without (circles) chemoprotection. Blood counts were determined prior to chemotherapy, at the blood nadir (6 days), and in the recovery phase (9 days after treatment). Chemoprotection was with NAC (1200 mg/kg) administered via aortic infusion 30 min prior to chemotherapy (triangles) or NAC prior to chemotherapy and STS (8 g/m2) immediately after chemotherapy (squares). In FIG. 10B and FIG. 10D animals received BSO (10 mg/kg i.p.×3 d) prior to treatment with chemotherapy. […] Significant difference from the no protectant groups were determined by Wilcoxon/Kruskal-Walliis rank sums tests (*p<0.05, **p<0.01).
Chemoprotection against chemotherapy-induced bone marrow toxicity was determined in BSO treated and untreated animals given i.a. carboplatin, etoposide phosphate, and melphalan. NAC with or without STS was administered either about 30 minutes prior to chemotherapy or immediately after chemotherapy, and was administered either i.v. or by aortic infusion.

[6] = cited from earlier work
cultured tumor cells = experiment: Paclitaxel cytotoxicity with BSO and NAC (WST); type: cell-based
[7] = read-out: Chemoprotective agent EC50, protection against carboplatin 200 μg/ml (about 90% lethal dose)
[8] = read-out: Chemoprotective agent EC50, protection against cisplatin 15 μg/ml (about 90% lethal dose)

SMILES: CCCCS(=N)(=O)CCC(N)C(=O)O (stereo not drawn) [BSO, buthionine sulfoximine]
- effect on toxicity of melphalan, cisplatin and carboplatin (GM294 human fibroblasts; 100 μM for 18 hours pretreatment): enhanced the toxicity of all three alkylators
- effect on cisplatin- or carboplatin-induced caspase activity [1]: No significant amplification of caspase activity
- effect on melphalan-induced Caspase-2 activity ([1]; BSO pretreatment, low melphalan concentrations): amplified

SMILES: N.N.O=C([O-])C1(C(=O)[O-])CCC1.[Pt+2] [Carboplatin, carboplatin]
- reduction of EC50 for cytotoxicity by BSO (B.5 LX-1 cells [2]; 100 μM BSO preincubation): 48%
- Chemotherapy EC50 (cytotoxicity) (B.5 LX-1 cells [2]; Without BSO, mean ± pooled sd of three experiments): 103 ± 21 µg/mL

SMILES: CSCC[C@@H](N)C(=O)O [D-methionine]
- EC50 (LX-1 SCLC cells [3]; [7]): 379 ± 123 µg/mL (≈ 2540 µM)
- EC50 (LX-1 SCLC cells [3]; [8]): 140 ± 41 µg/mL (≈ 938 µM)
- reduction of protection against cisplatin compared to simultaneous addition (LX-1 SCLC cells [4]; delayed for 2 hours after cisplatin): 41.2±10.2%
- reduction of protection against cisplatin compared to simultaneous addition (LX-1 SCLC cells [4]; delayed to 4 hours after cisplatin): 66.1±4.5%
- protection against cisplatin compared to simultaneous addition (LX-1 SCLC cells [4]; pretreatment for 30 min prior to cisplatin): did not increase the amount of protection

SMILES: CCOC(=O)CNC(=O)[C@H](CS)NC(=O)CC[C@H](N)C(=O)O [Glutathione ethyl ester]
- relative effectiveness among the thiol agents tested (LX-1 SCLC cells [3]; on a μg/ml basis): least effective
- Chemoprotective agent EC50 (LX-1 SCLC cells [3]; protection against carboplatin 200 μg/ml (about 90% lethal dose)): 995 ± 48 µg/mL
- Chemoprotective agent EC50 (LX-1 SCLC cells [3]; protection against cisplatin 15 μg/ml (about 90% lethal dose)): 530 ± 30 µg/mL
- Chemoprotective agent EC50 (LX-1 SCLC cells [3]; protection against melphalan 20 μg/ml (about 90% lethal dose)): 303 ± 124 µg/mL

SMILES: N[C@@H](Cc1ccc(N(CCCl)CCCl)cc1)C(=O)O [Melphalan, melphalan]
- TUNEL staining positive cells (B.5 LX-1 cells [5]; BSO treatment prior to melphalan): 800 of 1699
- TUNEL staining positive cells (B.5 LX-1 cells [5]; melphalan treatment without BSO): 29 of 3643
- increase in caspase activity ([1]; 7–8 h after treatment): 50–100%
- increase in caspase activity ([1]; 20–24 h after treatment): 250–600%
- reduction of EC50 for cytotoxicity by BSO (B.5 LX-1 cells [2]): 53%
- EC50 (B.5 LX-1 cells [2]; LX-1, read-out: Chemotherapy EC50 (cytotoxicity), + BSO (100 μM preincubation 18–24 hours), mean ± pooled sd of three experiments): 6.4 ± 0.6 µg/mL
- EC50 (B.5 LX-1 cells [2]; LX-1, read-out: Chemotherapy EC50 (cytotoxicity), Without BSO, mean ± pooled sd of three experiments): 13.8 ± 1.8 µg/mL (≈ 45.2 µM)

SMILES: O=S(O)(O)=S [STS, sodium thiosulfate]
- EC50 (LX-1 SCLC cells [3]; [7]): 442 ± 203 µg/mL
- EC50 (LX-1 SCLC cells [3]; [8]): 86 ± 76 µg/mL
- EC50 (LX-1 SCLC cells [3]; read-out: Chemoprotective agent EC50, protection against melphalan 20 μg/ml (about 90% lethal dose)): 110 ± 78 µg/mL
- protection against melphalan cytotoxicity with delayed addition (LX-1 SCLC cells [4]; melphalan 20 μg/ml, protectant delayed (2 hours for STS)): chemoprotection was reduced
- protection against platinum (carboplatin, cisplatin) cytotoxicity with delayed addition (LX-1 SCLC cells [4]; protectant delayed (up to 4 hours for STS)): still protective
- bone marrow protection (rats): did not give consistent bone marrow protection
- plasma half life ([6]; after a bolus injection): about 17 minutes
- brain levels ([6]; i.v. administration): < 5 % of blood

SMILES: COc1cccc2c1C(=O)c1c(O)c3c(c(O)c1C2=O)C[C@@](O)(C(=O)CO)C[C@@H]3O[C@H]1C[C@H](N)[C@H](O)[C@H](C)O1 [doxorubicin]
- BSO enhancement or N-acetylcysteine protection of the agent's cytotoxicity (B.5 LX-1 cells [2]): no enhancement or protection

SMILES: COc1cc([C@@H]2c3cc4c(cc3[C@@H](O[C@@H]3O[C@@H]5CO[C@@H](C)O[C@H]5[C@H](O)[C@H]3O)[C@H]3COC(=O)[C@H]23)OCO4)cc(OC)c1OP(=O)(O)O [etoposide phosphate]
- effect of BSO and N-acetylcysteine on the agent's cytotoxicity (GM294 human fibroblasts): neither BSO cytoenhancement nor N-acetylcysteine chemoprotection affected the cytotoxicity
- BSO enhancement or N-acetylcysteine protection of the agent's cytotoxicity (B.5 LX-1 cells [2]): BSO did not increase the cytotoxicity of etoposide phosphate, nor did N-acetylcysteine decrease the cytotoxicity

SMILES: CN(Cc1cnc2nc(N)nc(N)c2n1)c1ccc(C(=O)N[C@@H](CCC(=O)O)C(=O)O)cc1 [methotrexate]
- BSO enhancement or N-acetylcysteine protection of the agent's cytotoxicity (B.5 LX-1 cells [2]): no enhancement or protection

SMILES: CC(=O)O[C@H]1C(=O)[C@@]2(C)[C@H]([C@H](OC(=O)c3ccccc3)[C@]3(O)C[C@H](OC(=O)[C@H](O)[C@@H](NC(=O)c4ccccc4)c4ccccc4)C(C)=C1C3(C)C)[C@]1(OC(C)=O)CO[C@@H]1C[C@@H]2O [paclitaxel]
- dose completely cytotoxic in vitro (cultured tumor cells; cells pretreated with BSO): ≥ 5 µM
- live cells (WST fluorescence) (cultured tumor cells; paclitaxel dose 5 (unit not given)): 1.274 +/− .071
- live cells (WST fluorescence) (cultured tumor cells; paclitaxel dose 20 (unit not given)): 0.771 +/− .056
- concentration at which it begins to be cytotoxic (cultured tumor cells; without BSO): 20 µM
- concentration at which it is completely toxic (cultured tumor cells; without BSO): 30 µM
- growth inhibitory dose (B.5 LX-1 cells [2]; not altered by BSO): approximately 10 nM
